Measurements from patent publication US20190062260A1, “ANTIMICROBIAL COMPOSITIONS, METHODS OF MAKING, AND METHODS OF USE” (priority 2017, published 2019).

Experiment: Degradation of compound and release of acrolein, tracked via NMR spectroscopy
Format: physicochemical
Details: 50 mM in deuterated water; for % acrolein generated pH 3, 3 days / % degraded pH 3, 3 days: pH 3 (adjusted with deuterium chloride); for % acrolein generated pH 3, 3 days / % degraded pH 3, 3 days / % acrolein generated pH 7, 7 days / % degraded pH 7, 7 days: 25 degrees Celsius
Procedure: Degradation of Compound and Release of Acrolein
n=3, X as defined in the table. Measured at 25 degrees Celsius (room temperature), tracked via NMR spectroscopy. All compounds were prepared at 50 mM in deuterated water, pH adjusted with deuterium chloride.
n=3, X is Br. Measured at 25 or 70 degrees Celsius, tracked via NMR spectroscopy. All compounds were prepared at 50 mM in deuterated water at pH 7. Measurements were made after 4 hours.

SMILES	% acrolein generated 25° C. (25° C., pH 7, after 4 hours) [%]	% degraded 25° C. (25° C., pH 7, after 4 hours) [%]	% acrolein generated 70° C. (70° C., pH 7, after 4 hours) [%]	% degraded 70° C. (70° C., pH 7, after 4 hours) [%]	% acrolein generated pH 3, 3 days [%]	% degraded pH 3, 3 days [%]	% acrolein generated pH 7, 7 days [%]	% degraded pH 7, 7 days [%]
COCCOCCOCCOC(CCBr)OCCOCCOCCOC [Compound 3]	0	0	40	85	8	100	12	95
COCCOCCOCCOC(CCCl)OCCOCCOCCOC [Compound 1]	–	–	–	–	1	50	0	0
